Measured values as given in US9801961B2, “2-phenylimidazo[1,2-a]pyrimidines as imaging agents” (Hoffmann-La Roche Inc., priority 2013, dated 2017).

tested on: native tau aggregates; test: TAU radioligand in vitro displacement assay ([3H]T808 autoradiography on human AD brain sections); assay type: binding; details: compound 10 nM, radioligand [3H]T808 10 nM, 50 mM Tris pH 7.4, room temperature, 30 min
Method: TAU Radioligand-In-Vitro Displacement Assay
This in vitro binding assay assesses the affinity of compounds for native tau aggregates. The compounds are co-incubated with the well-established tau specific radioligand [^3H]T808 and the compound's displacement potency of [^3H]T808 binding is determined by in vitro autoradiography using human Alzheimer's disease (AD) brain sections (FIG. 1).
AD human brains are purchased from Banner Sun Health Research Institute (Sun City, Ariz., USA). Pathological diagnosis of AD is made according to standard NIA-Reagan Institute criteria based on neuropathological data. The radioligand [^3H]T808 was synthesized in-house ([^3H]-2-[4-(2-Fluoro-ethyl)-piperidin-1-yl]-benzo[4,5]imidazo[1,2-a]pyrimidine, radiochemical purity 99.0%). As a reference cold T808 is used (2-[4-(2-Fluoro-ethyl)-piperidin-1-yl]-benzo[4,5]imidazo[1,2-a]pyrimidine). For the autoradiography FujiFilm Imaging Plates (BAS-IP TR 2025) are exposed to the sections and read with a FujiFilm IP reader (BAS-5000).
Ten μm thick human AD brain sections are generated with a cryostat (Leica CM3050) at −17° C. chamber temperature and −15° C. object temperature. Sections are transferred to Histobond+microscope slides (Marienfeld Laboratory Glasware). After drying for 3 hours at room temperature the sections are stored at −20° C. The sections are incubated with the radioligand (10 nM) and the respective cold compound (at various concentrations) in 50 mM Tris buffer, pH 7.4 at room temperature for 30 min. After washing 3×10 min at 4° C. in 50 mM Tris buffer, pH 7.4 and 3 quick dips in H2O dist. at 4° C. the sections are dried at 4° C. for 3 h. The sections are placed in a FujiFilm Cassette (BAS 2025), exposed with an Imaging Plate for five days and afterwards scanned with a resolution of […].
The signal intensity (Dens—PSL/mm2) in the region of interest (ROI) of the autoradiogram is quantified with the software MCID analysis (version 7.0, Imaging Research Inc.). The specific binding (SB) of [^3H]T808 binding in absence or in presence of a compound is calculated by subtracting the non-specific binding signal in the white matter, thus yielding SB[3H]T808 only and SBcompund. The % displacement by the various compounds is calculated as following: % displacement=100−(SBcompund/SB[3H]T808 only)*100.
In each experiment cold T808 is used as a positive internal control. Co-incubation of equimolar amounts of hot and cold T808 is expected to reduce specific binding by approximately 50%.

Structure (SMILES) | % displacement of [3H]T808 (10 nM) at 10 nM [%]
COc1ccc(-c2cn3ccc(NC4CC4)nc3n2)cc1 [Example 76, N-Cyclopropyl-2-(4-methoxyphenyl)imidazo[1,2-a]pyrimidin-7-amine] | 43
COc1ccc(-c2cn3ccc(NCC(F)(F)F)nc3n2)cc1 [Example 78, 2-(4-Methoxyphenyl)-N-(2,2,2-trifluoroethyl)imidazo[1,2-a]pyrimidin-7-amine] | 8
FC1CCN(c2ccn3cc(-c4nc5ccccc5s4)nc3n2)CC1 [Example 79, 2-[7-(4-Fluoropiperidin-1-yl)imidazo[1,2-a]pyrimidin-2-yl]-1,3-benzothiazole] | 12
Oc1ccc(-c2cn3ccc(N4CCC4)nc3n2)cc1 [Example 80, 4-[7-(Azetidin-1-yl)imidazo[1,2-a]pyrimidin-2-yl]phenol] | 25
COc1ccc(-c2cn3ccc(N4CC(OC)C4)nc3n2)cc1 [Example 81, 7-(3-Methoxyazetidin-1-yl)-2-(4-methoxyphenyl)imidazo[1,2-a]pyrimidine] | 16
CNc1ccn2cc(-c3ccc(C)cc3)nc2n1 [Example 82, N-Methyl-2-(4-methylphenyl)imidazo[1,2-a]pyrimidin-7-amine] | 38
CNc1ccn2cc(-c3ccc(OC)cc3)nc2n1 [Example 83, 2-(4-Methoxyphenyl)-N-methylimidazo[1,2-a]pyrimidin-7-amine] | 41
CNc1ccn2cc(-c3ccc4c(c3)OCO4)nc2n1 [Example 84, 2-(1,3-Benzodioxol-5-yl)-N-methylimidazo[1,2-a]pyrimidin-7-amine] | 28
CN(C)c1ccn2cc(-c3ccsc3)nc2n1 [Example 85, N,N-Dimethyl-2-thiophen-3-ylimidazo[1,2-a]pyrimidin-7-amine] | 35
Cc1ccc(-c2cn3ccc(N(C)CCF)nc3n2)cc1 [Example 86, N-(2-Fluoroethyl)-N-methyl-2-(4-methylphenyl)imidazo[1,2-a]pyrimidin-7-amine] | 16
Cc1ccc(-c2cn3ccc(N4CCC4)nc3n2)cc1 [Example 94, 7-(Azetidin-1-yl)-2-(4-methylphenyl)imidazo[1,2-a]pyrimidine] | 15
Cc1cccc(-c2cn3ccc(N4CCC4)nc3n2)c1 [Example 95, 7-(Azetidin-1-yl)-2-(3-methylphenyl)imidazo[1,2-a]pyrimidine] | 38
CNc1ccn2cc(-c3ccc(O)c(OC)c3)nc2n1 [Example 98, 2-Methoxy-4-[7-(methylamino)imidazo[1,2-a]pyrimidin-2-yl]phenol] | 18
CNc1ccn2cc(-c3ccc(CO)cc3)nc2n1 [Example 107, [4-[7-(Methylamino)imidazo[1,2-a]pyrimidin-2-yl]phenyl]methanol acetic acid adduct] | 23
CNc1ccn2cc(-c3ccc(OC)c(F)c3)nc2n1 [Example 108, 2-(3-Fluoro-4-methoxyphenyl)-N-methylimidazo[1,2-a]pyrimidin-7-amine] | 36
CNc1ccn2cc(-c3ccc(NC(C)=O)cc3)nc2n1 [Example 109, N-(4-(7-(Methylamino)imidazo[1,2-a]pyrimidin-2-yl)phenyl)acetamide] | 30

The next lines start with the values.

% displacement of [3H]T808 (10 nM) at 10 nM [%] | Structure (SMILES)
19 | FC1CCN(c2ccn3cc(-c4cc5ccccc5o4)nc3n2)CC1 [Example 73, 2-(1-Benzofuran-2-yl)-7-(4-fluoropiperidin-1-yl)imidazo[1,2-a]pyrimidine]
16 | CN(C)c1ccc(-c2cn3ccc(N4CCOCC4)nc3n2)cc1 [Example 74, N,N-Dimethyl-4-(7-morpholin-4-ylimidazo[1,2-a]pyrimidin-2-yl)aniline]
18 | FC1CCN(c2ccn3cc(-c4cc5ccccc5s4)nc3n2)CC1 [Example 75, 2-(1-Benzothiophen-2-yl)-7-(4-fluoropiperidin-1-yl)imidazo[1,2-a]pyrimidine]
15 | COc1ccc(-c2cn3ccc(NC(C)C)nc3n2)cc1 [Example 77, N-Isopropyl-2-(4-methoxy-phenyl)-imidazo[1,2-a]pyrimidin-7-amine]
15 | CN(CCF)c1ccn2cc(-c3ccc4c(c3)OCO4)nc2n1 [Example 87, 2-(1,3-Benzodioxol-5-yl)-N-(2-fluoroethyl)-N-methylimidazo[1,2-a]pyrimidin-7-amine]
22 | Cc1cccc(-c2cn3ccc(N(C)CCF)nc3n2)c1 [Example 88, N-(2-Fluoroethyl)-N-methyl-2-(3-methylphenyl)imidazo[1,2-a]pyrimidin-7-amine]
20 | COc1ccc(-c2cn3ccc(N4CC(C)C4)nc3n2)cc1 [Example 89, 2-(4-Methoxyphenyl)-7-(3-methylazetidin-1-yl)imidazo[1,2-a]pyrimidine]
38 | CNc1ccn2cc(-c3ccc(N(C)C)cc3)nc2n1 [Example 90, 2-[4-(Dimethylamino)phenyl]-N-methylimidazo[1,2-a]pyrimidin-7-amine]
15 | CN(C)c1ccc(-c2cn3ccc(N4CCC(F)CC4)nc3n2)cc1 [Example 91, 4-[7-(4-Fluoropiperidin-1-yl)imidazo[1,2-a]pyrimidin-2-yl]-N,N-dimethylaniline]
27 | CN(C)c1ccc(-c2cn3ccc(N(C)CCF)nc3n2)cc1 [Example 92, 2-[4-(Dimethylamino)phenyl]-N-(2-fluoroethyl)-N-methylimidazo[1,2-a]pyrimidin-7-amine]
42 | COc1ccc(-c2cn3ccc(N(C)C4CC4)nc3n2)cc1 [Example 93, N-Cyclopropyl-2-(4-methoxyphenyl)-N-methylimidazo[1,2-a]pyrimidin-7-amine]
34 | CN(C)c1ccc(-c2cn3ccc(NCCF)nc3n2)cc1 [Example 96, 2-[4-(Dimethylamino)phenyl]-N-(2-fluoroethyl)imidazo[1,2-a]pyrimidin-7-amine]
30 | FCOc1ccc(-c2cn3ccc(N4CCC4)nc3n2)cc1 [Example 97, 7-(Azetidin-1-yl)-2-[4-(fluoromethoxy)phenyl]imidazo[1,2-a]pyrimidine]
27 | CNc1ccn2cc(-c3cccc(Br)c3)nc2n1 [Example 99, 2-(3-Bromophenyl)-N-methylimidazo[1,2-a]pyrimidin-7-amine]
20 | FC1CCN(c2ccn3cc(-c4cnccn4)nc3n2)CC1 [Example 106, 7-(4-Fluoropiperidin-1-yl)-2-(pyrazin-2-yl)imidazo[1,2-a]pyrimidine]
18 | CNc1ccn2cc(-c3ccc4c(c3)CC(=O)N4)nc2n1 [Example 110, 5-(7-(Methylamino)imidazo[1,2-a]pyrimidin-2-yl)indolin-2-one]
25 | FCCOc1ccc(-c2cn3ccc(N4CCC4)nc3n2)cc1 [Example 111, 7-(Azetidin-1-yl)-2-(4-(2-fluoroethoxy)phenyl)imidazo[1,2-a]pyrimidine]
